In patent US20240343704A1, “HALO-SUBSTITUTED AMINO PYRIDINE COMPOUNDS AS INHIBITORS OF THE HAEMATOPOIETIC PROGENITOR KINASE 1 (HPK1)” (priority 2021, published 2024):

Legend:
[1] = molecular target: T1, Recombinant (1-346) HPK1 (h) (Homo sapiens, UniProt Q92918); assay: HPK1 Human STE Kinase Enzymatic Radiometric Assay; assay type: biochemical; conditions: read-out: HPK1 IC50 nM Range*
T1 construct: Recombinant (1-346) HPK1 (h) is incubated with 8 mM MOPS pH 7.0
T1 sequence (Q92918 1-346): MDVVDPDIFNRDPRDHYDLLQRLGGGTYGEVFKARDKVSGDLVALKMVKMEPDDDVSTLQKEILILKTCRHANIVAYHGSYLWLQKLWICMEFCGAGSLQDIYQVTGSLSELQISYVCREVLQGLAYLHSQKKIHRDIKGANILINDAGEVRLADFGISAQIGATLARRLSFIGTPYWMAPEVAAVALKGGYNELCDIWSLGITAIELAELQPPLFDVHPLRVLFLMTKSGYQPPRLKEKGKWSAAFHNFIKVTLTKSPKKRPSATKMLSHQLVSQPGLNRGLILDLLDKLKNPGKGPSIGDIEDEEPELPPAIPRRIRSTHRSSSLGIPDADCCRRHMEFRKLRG
Procedure: A stock solution of 10 mM of test compound is prepared in DMSO. The compound plate was prepared by 3-fold and 9-point serial dilutions. […] The reaction is initiated by The addition of the Mg/ATP mix. After incubation for 40 minutes at RT, the reaction is stopped by the addition of phosphoric acid to a concentration of 0.5%.

[2] = molecular target: Lck (h) (Homo sapiens, UniProt P06239); assay: Lck Human  Kinase Enzymatic Radiometric Assay; assay type: biochemical; conditions: read-out: Lck IC50 nM Range*
Sequence of Lck (h) (P06239 whole entry): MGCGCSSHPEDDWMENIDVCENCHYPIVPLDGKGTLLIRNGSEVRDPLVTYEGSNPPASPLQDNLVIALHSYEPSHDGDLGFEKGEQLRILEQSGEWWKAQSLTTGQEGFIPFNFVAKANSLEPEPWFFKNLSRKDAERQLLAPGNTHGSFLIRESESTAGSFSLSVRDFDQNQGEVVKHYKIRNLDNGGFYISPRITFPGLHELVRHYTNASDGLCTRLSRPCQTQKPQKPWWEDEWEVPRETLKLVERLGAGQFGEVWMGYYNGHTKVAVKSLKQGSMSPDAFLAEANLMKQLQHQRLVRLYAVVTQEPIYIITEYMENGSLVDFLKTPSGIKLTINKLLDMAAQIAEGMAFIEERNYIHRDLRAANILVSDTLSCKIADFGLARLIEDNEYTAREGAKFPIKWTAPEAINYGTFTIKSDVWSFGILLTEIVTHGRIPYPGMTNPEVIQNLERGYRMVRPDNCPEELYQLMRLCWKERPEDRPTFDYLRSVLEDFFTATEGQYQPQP
Procedure: Lck (h) is incubated with 50 mM Tris pH 7.5, 0.1 mM EGTA, 0.1 mM Na3VO4, 250 uM KVEKIGEGTYGVVYK (Cdc2 peptide), 10 mM MgAcetate and [gamma-33P]-ATP (specific activity and concentration as required). The reaction is initiated by the addition of the Mg/ATP mix. After incubation for 40 minutes at RT, the reaction is stopped by the addition of phosphoric acid to a concentration of 0.5%. 10 uL of the reaction is then spotted onto a P30 filtermat and washed four times for 4 minutes in 0.425% phosphoric acid and once in methanol prior to drying and scintillation counting. For more details on the kinase assay procedures see: Gao, Y. et. al.; Biochem J., 451 (2): 313-328, 2013.

Structure (SMILES)	IC50 [1] [nM]	IC50 [2] [nM]
Nc1ncc(-c2ccc(N3CCOCC3)cc2)c(F)c1-c1ccc2c(c1)CCNC2=O [I-2, 6-(2-amino-4-fluoro-5-(4-morpholinophenyl)pyridin-3-yl)-3,4-dihydroisoquinolin-1(2H)-one]	11 to 100	> 1000
CC(C)S(=O)(=O)c1ccc(-c2cnc(N)c(-c3ccc4c(c3)CCNC4=O)c2F)cc1 [I-3, 6-(2-amino-4-fluoro-5-(4-(isopropylsulfonyl)phenyl)pyridin-3-yl)-3,4-dihydroisoquinolin-1(2H)-one]	11 to 100	> 1000
CC(C)[C@@H]1CN(c2ccc(-c3cnc(N)c(-c4ccc5c(c4)CCNC5=O)c3F)cc2)CCO1 [I-4, (R)-6-(2-amino-4-fluoro-5-(4-(2-isopropylmorpholino)phenyl)pyridin-3-yl)-3,4-dihydroisoquinolin-1(2H)-one]	11 to 100	> 1000
CC(C)[C@H]1CN(c2ccc(-c3cnc(N)c(-c4ccc5c(c4)CCNC5=O)c3F)cc2)CCO1 [I-5, (S)-6-(2-amino-4-fluoro-5-(4-(2-isopropylmorpholino)phenyl)pyridin-3-yl)-3,4-dihydroisoquinolin-1(2H)-one]	11 to 100	> 1000
CC(C)[C@@H]1CN(c2ccc(-c3cnc(N)c(-c4ccc5c(c4)CCNC5=O)c3F)c(F)c2)CCO1 [I-6, (R)-6-(2-amino-4-fluoro-5-(2-fluoro-4-(2-isopropylmorpholino)phenyl)pyridin-3-yl)-3,4-dihydroisoquinolin-1(2H)-one]	11 to 100	> 1000
CC(C)[C@H]1CN(c2ccc(-c3cnc(N)c(-c4ccc5c(c4)CCNC5=O)c3F)c(F)c2)CCO1 [I-7, (S)-6-(2-amino-4-fluoro-5-(2-fluoro-4-(2-isopropylmorpholino)phenyl)pyridin-3-yl)-3,4-dihydroisoquinolin-1(2H)-one]	101 to 1000	> 1000
CN1CCN(c2ccc(-c3cc(-c4ccc5c(c4)CCNC5=O)c(N)nc3F)cc2)CC1 [I-8, 6-(2-amino-6-fluoro-5-(4-(4-methylpiperazin-1-yl)phenyl)pyridin-3-yl)-3,4-dihydroisoquinolin-1(2H)-one]	0.1 to 10	> 1000
CC(C)[C@@H]1CN(c2ccc(-c3cc(-c4ccc5c(c4)CCNC5=O)c(N)nc3F)cc2)CCO1 [I-9, (R)-6-(2-amino-6-fluoro-5-(4-(2-isopropylmorpholino)phenyl)pyridin-3-yl)-3,4-dihydroisoquinolin-1(2H)-one]	0.1 to 10	> 1000
CC(C)[C@H]1CN(c2ccc(-c3cc(-c4ccc5c(c4)CCNC5=O)c(N)nc3F)cc2)CCO1 [I-10, (S)-6-(2-amino-6-fluoro-5-(4-(2-isopropylmorpholino)phenyl)pyridin-3-yl)-3,4-dihydroisoquinolin-1(2H)-one]	11 to 100	> 1000
CC(C)[C@@H]1CN(c2ccc(-c3cc(-c4ccc5c(c4)CCNC5=O)c(N)nc3F)c(F)c2)CCO1 [I-11, (R)-6-(2-amino-6-fluoro-5-(2-fluoro-4-(2-isopropylmorpholino)phenyl)pyridin-3-yl)-3,4-dihydroisoquinolin-1(2H)-one]	0.1 to 10	> 1000
CC(C)[C@H]1CN(c2ccc(-c3cc(-c4ccc5c(c4)CCNC5=O)c(N)nc3F)c(F)c2)CCO1 [I-12, (S)-6-(2-amino-6-fluoro-5-(2-fluoro-4-(2-isopropylmorpholino)phenyl)pyridin-3-yl)-3,4-dihydroisoquinolin-1(2H)-one]	11 to 100	> 1000
CN1[C@@H]2CC[C@H]1CN(c1ccc(-c3cc(-c4ccc5c(c4)CCNC5=O)c(N)nc3F)cc1)C2 [I-13, 6-(2-amino-6-fluoro-5-(4-((1R,5S)-8-methyl-3,8-diazabicyclo[3.2.1]octan-3-yl)phenyl)pyridin-3-yl)-3,4-dihydroisoquinolin-1(2H)-one]	0.1 to 10	101 to 1000
